Patent publication US20120244122A1, “Peptides for the Treatment of HCV Infections” (priority 2009, published 2012)
Read-outs that look alike come from different tables or passages of the source.

Tests used:
[1] = Metabolic stability in human liver microsomes; type: in vitro ADME; details: for % Difference: [(deuterated species) − (nondeuterated species)](100)/(nondeuterated species), t1/2 in HLM vs boceprevir; for half-life at 0.25 μM: human, in vitro half-life, 0.5 mg/mL HLM, 0.25 μM test compound, 2 mM NADPH, pH 7.4, 37° C., 0-30 minutes
Protocol: Human liver microsomes (20 mg/mL) were obtained from Xenotech, LLC (Lenexa, Kans.). β-Nicotinamide adenine dinucleotide phosphate, reduced form (NADPH), magnesium chloride (MgCl2), and dimethyl sulfoxide (DMSO) were purchased from Sigma-Aldrich.
7.5 mM stock solutions of Compounds 103, 109, 130, 134, 154, 157 and 158, as well as boceprevir, were prepared in DMSO. The 7.5 mM stock solutions were diluted to 12.5 μM in acetonitrile (ACN). The 20 mg/mL human liver microsomes were diluted to 0.625 mg/mL in 0.1 M potassium phosphate buffer, pH 7.4, containing 3 mM MgCl2. The diluted microsomes (375 μL) were added to wells of a 96-well deep-well polypropylene plate in triplicate. 10 μL of the 12.5 μM test compound was added to the microsomes and the mixture was pre-warmed for 10 minutes. Reactions were initiated by addition of 125 μL of pre-warmed NADPH solution. The final reaction volume was 0.5 mL and contained 0.5 mg/mL human liver microsomes, 0.25 μM test compound, and 2 mM NADPH in 0.1 M potassium phosphate buffer, pH 7.4, and 3 mM MgCl2. The reaction mixtures were incubated at 37° C., and 50 μL aliquots were removed at 0, 5, 10, 20, and 30 minutes and added to shallow-well 96-well plates which contained 50 μL of ice-cold ACN with internal standard to stop the reactions. The plates were stored at 4° C. for 20 minutes after which 100 μl of water was added to the wells of the plate before centrifugation to pellet precipitated proteins. Supernatants were transferred to another 96-well plate and analyzed for amounts of parent remaining by LC-MS/MS using an Applied Bio-systems API 4000 mass spectrometer. 7-ethoxycoumarin (1 μM) was used as the positive control substrate.
The in vitro half-lives (t1/2s) for test compounds are calculated from the slopes of the linear regression of % parent remaining (ln) vs incubation time relationship using the following formula:
in vitro t1/2=0.693/k, where k=−[slope of linear regression of % parent remaining(ln) vs incubation time]
Data analysis is performed using Microsoft Excel Software.
The experiment was repeated four separate times.

hepatitis C virus (HCV) = details: treatment-naïve patients, boceprevir combined with peginterferon alpha-2b and ribavirin, cited from earlier work
[2] = patients with hepatitis C; adverse events infrequent (headache, fever, myalgia); cited from earlier work

% Difference [1]	half-life at 0.25 μM ([1]; human liver microsomes)	Compound	sustained viral response (SVR) rates (hepatitis C virus (HCV); after 12 weeks)	sustained viral response (SVR) rates (hepatitis C virus (HCV); after 24 weeks)	tolerability [2]	half-life at 0.25 μM ([1]; microsomes)
96.3%	37.2 min	[2H]C([2H])([2H])C1(C([2H])([2H])[2H])[C@@H]2[C@@H](C(=O)NC(C(=O)C(N)=O)C([2H])([2H])C3([2H])C([2H])([2H])C([2H])([2H])C3([2H])[2H])N(C(=O)[C@@H](NC(=O)NC(C([2H])([2H])[2H])(C([2H])([2H])[2H])C([2H])([2H])[2H])C(C([2H])([2H])[2H])(C([2H])([2H])[2H])C([2H])([2H])[2H])C[C@@H]21 (stereo partly drawn) [Compound 158, (1R,2S,5S)—N-(4-Amino-1-(cyclobutyl-d7)-1,1-d2-3,4-dioxobutan-2-yl)-3-((S)-2-(3-(tert-butyl-d9)ureido)-3,3-di(methyl-d3)-4,4,4-d3-butanoyl)-6,6-di(methyl-d3)-3-azabicyclo[3.1.0]hexane-2-carboxamide]	–	–	–	–
–	19 min	CC(C)(C)NC(=O)NC(C(=O)N1CC2C(C1C(=O)NC(CC1CCC1)C(=O)C(N)=O)C2(C)C)C(C)(C)C (stereo not drawn) [Boceprevir, N-(4-amino-1-cyclobutyl-3,4-dioxobutan-2-yl)-3-(2-(3-tert-butylureido)-3,3-dimethylbutanoyl)-6,6-dimethyl-3-azabicyclo[3.1.0]hexane-2-carboxamide]	66-74%	55-56%	well-tolerated	–
39.9%	26.6 min	[2H]C1([2H])C([2H])([2H])C([2H])(CC(NC(=O)[C@@H]2[C@@H]3[C@H](CN2C(=O)[C@@H](NC(=O)NC(C)(C)C)C(C)(C)C)C3(C)C)C(=O)C(N)=O)C1([2H])[2H] (stereo partly drawn) [Compound 157, (1R,2S,5S)—N-(4-Amino-1-(cyclobutyl-d7)-3,4-dioxobutan-2-yl)-3-((S)-2-(3-tert-butylureido)-3,3-dimethylbutanoyl)-6,6-dimethyl-3-azabicyclo[3.1.0]hexane-2-carboxamide]	–	–	–	–
65.3%	31.4 min	[2H]C([2H])([2H])C1(C([2H])([2H])[2H])[C@@H]2[C@@H](C(=O)NC(C(=O)C(N)=O)C([2H])([2H])C3([2H])C([2H])([2H])C([2H])([2H])C3([2H])[2H])N(C(=O)[C@@H](NC(=O)NC(C)(C)C)C(C)(C)C)C[C@@H]21 (stereo partly drawn) [Compound 130, (1R,2S,5S)—N-(4-Amino-1-(cyclobutyl-d7)-1,1-d2-3,4-dioxobutan-2-yl)-3-((S)-2-(3-tert-butylureido)-3,3-dimethylbutanoyl)-6,6-di(methyl-d3)-3-azabicyclo[3.1.0]hexane-2-carboxamide]	–	–	–	–
51.4%	28.7 min	[2H]C([2H])(C(NC(=O)[C@@H]1[C@@H]2[C@H](CN1C(=O)[C@@H](NC(=O)NC(C)(C)C)C(C)(C)C)C2(C)C)C(=O)C(N)=O)C1([2H])C([2H])([2H])C([2H])([2H])C1([2H])[2H] (stereo partly drawn) [Compound 154, (1R,2S,5S)—N-(4-Amino-1-(cyclobutyl-d7)-1,1-d2-3,4-dioxobutan-2-yl)-3-((S)-2-(3-tert-butylureido)-3,3-dimethylbutanoyl)-6,6-dimethyl-3-azabicyclo[3.1.0]hexane-2-carboxamide]	–	–	–	–
21.8%	23.2 min	[2H]C([2H])([2H])C(NC(=O)N[C@H](C(=O)N1C[C@H]2[C@@H]([C@H]1C(=O)NC(CC1CCC1)C(=O)C(N)=O)C2(C)C)C(C([2H])([2H])[2H])(C([2H])([2H])[2H])C([2H])([2H])[2H])(C([2H])([2H])[2H])C([2H])([2H])[2H] (stereo partly drawn) [Compound 109, (1R,2S,5S)—N-(4-Amino-1-cyclobutyl-3,4-dioxobutan-2-yl)-6,6-dimethyl-3-((S)-4,4,4-(methyl-d3)-2-(3-(1,1,1,3,3,3-di(methyl-d3)-2-(methyl-d3)propan-2-yl)ureido)-3,3-di(methyl-d3)butanoyl)-3-azabicyclo[3.1.0]hexane-2-carboxamide]	–	–	–	–
32.0%	25 min	[2H]C([2H])([2H])C1(C([2H])([2H])[2H])[C@@H]2[C@@H](C(=O)NC(CC3CCC3)C(=O)C(N)=O)N(C(=O)[C@@H](NC(=O)NC(C([2H])([2H])[2H])(C([2H])([2H])[2H])C([2H])([2H])[2H])C(C([2H])([2H])[2H])(C([2H])([2H])[2H])C([2H])([2H])[2H])C[C@@H]21 (stereo partly drawn) [Compound 103, (1R,2S,5S)—N-(4-Amino-1-(cyclobutyl)-3,4-dioxobutan-2-yl)-3-((S)-2-(3-tert-butyl-d9-ureido)-3,3-di(methyl-d3)-4,4,4-d3-butanoyl)-6,6-di(methyl-d3)-3-azabicyclo[3.1.0]hexane-2-carboxamide]	–	–	–	–

Compound	% Difference [1]	half-life at 0.25 μM ([1]; human liver microsomes)	sustained viral response (SVR) rates (hepatitis C virus (HCV); after 12 weeks)	sustained viral response (SVR) rates (hepatitis C virus (HCV); after 24 weeks)	tolerability [2]	half-life at 0.25 μM ([1]; microsomes)
[2H]C([2H])([2H])C1(C([2H])([2H])[2H])[C@@H]2[C@@H](C(=O)NC(CC3CCC3)C(=O)C(N)=O)N(C(=O)[C@@H](NC(=O)NC(C)(C)C)C(C)(C)C)C[C@@H]21 (stereo partly drawn) [Compound 134, (1R,2S,5S)—N-(4-Amino-1-cyclobutyl-3,4-dioxobutan-2-yl)-3-((S)-2-(3-tert-butylureido)-3,3-dimethylbutanoyl)-6,6-di(methyl-d3)-3-azabicyclo[3.1.0]hexane-2-carboxamide]	7.9%	–	–	–	–	19.1 min
